This is an account of results in patent US20260325533A1, “CDK INHIBITOR COMPOUNDS” (ALEKSIA THERAPEUTICS, INC., priority 2023, published 2026).

What all share (format): biochemical
Test [1] deals with CDK2/CCNE1 (Homo sapiens, UniProt P24941). The test is described as follows: CDK2 homogeneous time-resolved fluorescence (HTRF) kinase assay. The following applies: CDK2/CCNE. Summed up: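 TR-FRET read-out (665 nm, or 665/615 ratio) of Eu-antibody detection of phospho-4E-BP1 (Thr37/46) ULight peptide. Enzyme 3 nM, ATP 1 mM, peptide 50 nM, 1% DMSO; 60 min reaction at 23 °C after 20 min compound preincubation. IC50 from 11-point half-log titrations, top typically 10 μM.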

Test [2] addresses CDK1/CCNB1 (Homo sapiens, UniProt P06493). The test is described as follows: CDK1 homogeneous time-resolved fluorescence (HTRF) kinase assay. The settings on record: CDK1/CCNB. Summed up: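 Compounds, titrated 11 points in half-log steps typically from 10 μM, were incubated with enzyme for 20 min before ATP (1 mM) and ULight-labelled eIF4E-binding protein 1 peptide (50 nM) started a 60-min reaction at 23 °C. Phosphopeptide was detected by europium-antibody TR-FRET and IC50 values were derived.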
In general terms: Time-resolved FRET reads energy transfer from a long-lived donor to a nearby acceptor.

Test [3] addresses CDK4/CCND3 (Homo sapiens, UniProt P11802). The test can be described thus: CDK4 homogeneous time-resolved fluorescence (HTRF) kinase assay. The following applies: CDK4/CCND. The method in brief:
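IC50s derive from Lance 665 nm or 665/615 nm signals in 11-point, half-log dose series (top 10 μM, 1% DMSO). The enzyme, 1.5 nM CDK4/CCND3, phosphorylates 50 nM ULight-4E-BP1 peptide with 1 mM ATP over 60 min at 23 °C.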

Test [4] has as its target CDK6/CCND1 (Homo sapiens, UniProt Q00534). The test is described as follows: CDK6 homogeneous time-resolved fluorescence (HTRF) kinase assay. The settings on record: CDK6/CCND. Summed up: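 Assay conditions: HEPES buffer containing 10 mM MgCl2, 1 mM EGTA, 2 mM DTT, 0.01% Tween 20; 1 nM CDK6/CCND1, 50 nM peptide substrate, 1 mM ATP. Detection after 60 min reaction used 2 nM europium antibody with 340 nm excitation. Potency fitted from half-log series, 11 points.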

Where [5] appears, read: x = IC50 <25 nM, read-out: CDK2/CCNE IC50 (<25 nM).
The mark [6] stands for this setting: x = IC50 25-250 nM, read-out: CDK1/CCNB IC50 (25-250 nM).
[7] abbreviates: x = IC50 25-250 nM, read-out: CDK4/CCND IC50 (25-250 nM).
[8] abbreviates: x = IC50 25-250 nM, read-out: CDK6/CCND IC50 (25-250 nM).
The mark [9] stands for this setting: x = IC50 >250 nM, read-out: CDK1/CCNB IC50 (>250 nM column).
Where [10] appears, read: x = IC50 >250 nM, read-out: CDK4/CCND IC50 (>250 nM column).
The mark [11] stands for this setting: x = IC50 >250 nM, read-out: CDK6/CCND IC50 (>250 nM column).
Where [12] appears, read: x = IC50 <25 nM, read-out: CDK1/CCNB IC50 (<25 nM).

Like-named read-outs stand apart in the source and are kept apart here.

Sequence of CDK6/CCND1 (Q00534 whole entry): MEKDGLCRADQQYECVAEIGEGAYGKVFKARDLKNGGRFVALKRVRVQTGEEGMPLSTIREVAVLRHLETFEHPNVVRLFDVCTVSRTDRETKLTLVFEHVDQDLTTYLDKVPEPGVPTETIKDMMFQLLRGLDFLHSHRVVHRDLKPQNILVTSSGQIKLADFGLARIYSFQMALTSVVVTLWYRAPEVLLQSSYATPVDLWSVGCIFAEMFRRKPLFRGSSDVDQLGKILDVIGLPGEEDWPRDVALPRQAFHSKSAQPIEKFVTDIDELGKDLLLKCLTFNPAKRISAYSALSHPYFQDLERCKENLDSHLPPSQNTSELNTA
Sequence of CDK6/CCND1 (P24385 whole entry partner): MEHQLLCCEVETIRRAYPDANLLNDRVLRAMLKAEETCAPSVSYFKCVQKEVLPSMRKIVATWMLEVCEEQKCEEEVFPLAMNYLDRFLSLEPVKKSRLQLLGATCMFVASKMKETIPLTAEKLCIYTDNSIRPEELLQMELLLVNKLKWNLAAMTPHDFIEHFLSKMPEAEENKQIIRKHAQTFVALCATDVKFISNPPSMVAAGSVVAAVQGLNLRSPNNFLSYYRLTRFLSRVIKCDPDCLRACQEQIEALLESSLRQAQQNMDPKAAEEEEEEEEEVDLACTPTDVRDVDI
Sequence of CDK4/CCND3 (P11802 whole entry): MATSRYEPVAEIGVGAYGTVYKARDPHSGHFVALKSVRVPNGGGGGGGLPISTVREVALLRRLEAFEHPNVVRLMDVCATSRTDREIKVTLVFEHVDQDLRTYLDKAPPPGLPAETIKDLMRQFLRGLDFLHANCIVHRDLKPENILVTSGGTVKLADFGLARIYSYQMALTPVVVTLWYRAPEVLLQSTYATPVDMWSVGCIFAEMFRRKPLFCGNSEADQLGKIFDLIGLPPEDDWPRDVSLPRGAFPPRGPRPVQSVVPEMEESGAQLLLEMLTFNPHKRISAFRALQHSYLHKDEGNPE
Sequence of CDK4/CCND3 (P30281 whole entry partner): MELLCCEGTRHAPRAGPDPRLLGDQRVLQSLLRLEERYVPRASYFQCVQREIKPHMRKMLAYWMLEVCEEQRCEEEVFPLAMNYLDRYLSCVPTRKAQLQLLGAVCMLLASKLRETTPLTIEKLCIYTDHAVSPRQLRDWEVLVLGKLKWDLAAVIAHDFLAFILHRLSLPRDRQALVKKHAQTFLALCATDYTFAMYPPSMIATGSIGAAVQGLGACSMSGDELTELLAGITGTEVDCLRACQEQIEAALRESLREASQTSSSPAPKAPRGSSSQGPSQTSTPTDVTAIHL
Sequence of CDK1/CCNB1 (P06493 whole entry): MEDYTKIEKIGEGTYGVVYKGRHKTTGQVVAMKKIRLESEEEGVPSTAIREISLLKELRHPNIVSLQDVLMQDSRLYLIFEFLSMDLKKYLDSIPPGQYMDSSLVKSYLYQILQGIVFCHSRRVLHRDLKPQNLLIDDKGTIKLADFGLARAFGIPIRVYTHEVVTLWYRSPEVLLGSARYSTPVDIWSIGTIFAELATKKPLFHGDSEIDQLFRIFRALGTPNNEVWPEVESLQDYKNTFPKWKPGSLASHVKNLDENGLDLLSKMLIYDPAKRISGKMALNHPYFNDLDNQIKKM
Sequence of CDK1/CCNB1 (P14635 whole entry partner): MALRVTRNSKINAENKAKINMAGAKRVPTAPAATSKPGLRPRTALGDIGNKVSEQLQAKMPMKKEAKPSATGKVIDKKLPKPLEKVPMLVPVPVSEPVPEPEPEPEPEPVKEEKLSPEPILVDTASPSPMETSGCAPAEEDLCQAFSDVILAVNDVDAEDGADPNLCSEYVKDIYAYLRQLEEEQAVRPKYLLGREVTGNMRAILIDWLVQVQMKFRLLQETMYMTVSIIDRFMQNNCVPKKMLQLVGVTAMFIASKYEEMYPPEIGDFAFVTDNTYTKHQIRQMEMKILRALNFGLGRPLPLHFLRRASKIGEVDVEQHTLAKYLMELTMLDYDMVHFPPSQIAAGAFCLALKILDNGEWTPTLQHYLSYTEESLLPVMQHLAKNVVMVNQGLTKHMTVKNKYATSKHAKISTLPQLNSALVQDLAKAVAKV

Regarding `CN1CCC(NS(=O)(=O)c2ccc(Nc3cc4c(C#Cc5cccnc5N)nccc4cn3)cc2)CC1` [Ex 432, 4-((5-((2-aminopyridin-3-yl)ethynyl)-2,6-naphthyridin-3-yl)amino)-N-(1-methylpiperidin-4-yl)benzenesulfonamide], the IC50 in test [1] (setting [5]) is < 25 nM; in test [2] (setting [6]), 25 to 250 nM; in test [3] (setting [7]) it was 25 to 250 nM; in test [4] (setting [8]), 25 to 250 nM.

Turning to `Nc1ncccc1C#Cc1nccc2cnc(Nc3ccc(S(=O)(=O)NC4CCNCC4)cc3)cc12` [Ex 433, 4-((5-((2-aminopyridin-3-yl)ethynyl)-2,6-naphthyridin-3-yl)amino)-N-(piperidin-4-yl)benzenesulfonamide], the IC50 in test [1] (setting [5]) is < 25 nM; in test [2] (setting [6]), 25 to 250 nM; in test [3] (setting [7]) it was 25 to 250 nM; in test [4] (setting [8]) it was 25 to 250 nM.

As for `Nc1ncccc1C#Cc1nccc2cnc(Nc3ccc(S(=O)(=O)NC4CCOCC4)cc3)cc12` [Ex 434, 4-((5-((2-aminopyridin-3-yl)ethynyl)-2,6-naphthyridin-3-yl)amino)-N-(tetrahydro-2H-pyran-4-yl)benzenesulfonamide], the IC50 is < 25 nM in test [1] (setting [5]), > 250 nM in test [2] (setting [9]), > 250 nM in test [3] (setting [10]) and > 250 nM in test [4] (setting [11]).

Turning to `Nc1ncccc1C#Cc1nccc2cnc(Nc3ccc(S(=O)(=O)NC4CC4)cc3)cc12` [Ex 435, 4-((5-((2-aminopyridin-3-yl)ethynyl)-2,6-naphthyridin-3-yl)amino)-N-cyclopropylbenzenesulfonamide], the IC50 is < 25 nM in test [1] (setting [5]), 25 to 250 nM in test [2] (setting [6]), > 250 nM in test [3] (setting [10]) and > 250 nM in test [4] (setting [11]).

For `CC1(C)C(=O)Nc2cc(C#Cc3nccc4cnc(Nc5ccc(S(C)(=O)=O)cn5)cc34)ccc21` [Ex 439, 3,3-dimethyl-6-((7-((5-(methylsulfonyl)pyridin-2-yl)amino)-2,6-naphthyridin-1-yl)ethynyl)indolin-2-one], the IC50 in test [1] (setting [5]) is < 25 nM; in test [2] (setting [6]), 25 to 250 nM; in test [3] (setting [10]), > 250 nM; in test [4] (setting [11]), > 250 nM.

For `COc1cc(S(C)(=O)=O)ccc1Nc1cc2c(C#Cc3ccc4c(c3)NC(=O)C4(C)C)nccc2cn1` [Ex 440, 6-((7-((2-methoxy-4-(methylsulfonyl)phenyl)amino)-2,6-naphthyridin-1-yl)ethynyl)-3,3-dimethylindolin-2-one], the IC50 is < 25 nM in test [1] (setting [5]), > 250 nM in test [2] (setting [9]), > 250 nM in test [3] (setting [10]) and > 250 nM in test [4] (setting [11]).

Turning to `CC1(C)C(=O)Nc2cc(C#Cc3nccc4cnc(Nc5ccc(S(=O)(=O)NC6CCNCC6)cc5)cc34)ccc21` [Ex 442, 4-((5-((3,3-dimethyl-2-oxoindolin-6-yl)ethynyl)-2,6-naphthyridin-3-yl)amino)-N-(piperidin-4-yl)benzenesulfonamide], the IC50 in test [1] (setting [5]) is < 25 nM; in test [2] (setting [12]) it was < 25 nM; in test [3] (x = IC50 <25 nM, read-out: CDK4/CCND IC50 (<25 nM)) it was < 25 nM; in test [4] (setting [8]), 25 to 250 nM.

For `CC1(C)C(=O)Nc2cc(C#Cc3nccc4cnc(Nc5ccc(S(=O)(=O)NC6CCOCC6)cc5)cc34)ccc21` [Ex 443, 4-((5-((3,3-dimethyl-2-oxoindolin-6-yl)ethynyl)-2,6-naphthyridin-3-yl)amino)-N-(tetrahydro-2H-pyran-4-yl)benzenesulfonamide], the IC50 in test [1] (setting [5]) is < 25 nM; in test [2] (setting [6]), 25 to 250 nM; in test [3] (setting [7]), 25 to 250 nM; in test [4] (setting [11]), > 250 nM.

Turning to `CC1(C)C(=O)Nc2cc(C#Cc3nccc4cnc(Nc5ccc(S(=O)(=O)C6CC6)cc5)cc34)ccc21` [Ex 444, 6-((7-((4-(cyclopropylsulfonyl)phenyl)amino)-2,6-naphthyridin-1-yl)ethynyl)-3,3-dimethylindolin-2-one], the IC50 is < 25 nM in test [1] (setting [5]), < 25 nM in test [2] (setting [12]), 25 to 250 nM in test [3] (setting [7]) and > 250 nM in test [4] (setting [11]).

Take `CS(=O)(=O)c1ccc(Nc2cc3c(C#Cc4ccc5c(c4)NC(=O)C54CC4)nccc3cn2)cc1` [Ex 445, 6'-((7-((4-(methylsulfonyl)phenyl)amino)-2,6-naphthyridin-1-yl)ethynyl)spiro[cyclopropane-1,3'-indolin]-2'-one]: the IC50 is < 25 nM in test [1] (setting [5]), 25 to 250 nM in test [2] (setting [6]), 25 to 250 nM in test [3] (setting [7]) and 25 to 250 nM in test [4] (setting [8]).

For the molecule `CCNS(=O)(=O)c1ccc(Nc2cc3c(C#Cc4cccnc4N)nccc3cn2)cc1` [Ex 447, 4-((5-((2-aminopyridin-3-yl)ethynyl)-2,6-naphthyridin-3-yl)amino)-N-ethylbenzenesulfonamide], the IC50 in test [1] (setting [5]) is < 25 nM; in test [2] (setting [6]) it was 25 to 250 nM; in test [3] (setting [7]), 25 to 250 nM; in test [4] (setting [11]), > 250 nM.

On to `Cc1cc(S(N)(=O)=O)ccc1Nc1cc2c(C#Cc3cccnc3N)nccc2cn1` [Ex 448, 4-((5-((2-aminopyridin-3-yl)ethynyl)-2,6-naphthyridin-3-yl)amino)-3-methylbenzenesulfonamide], for which the IC50 in test [1] (setting [5]) is < 25 nM; in test [2] (setting [6]) it was 25 to 250 nM; in test [3] (setting [10]), > 250 nM; in test [4] (setting [11]), > 250 nM.

Turning to `Cn1cc(NS(=O)(=O)c2ccc(Nc3cc4c(C#Cc5cccnc5N)nccc4cn3)cc2)cn1` [Ex 450, 4-((5-((2-aminopyridin-3-yl)ethynyl)-2,6-naphthyridin-3-yl)amino)-N-(1-methyl-1H-pyrazol-4-yl)benzenesulfonamide], the IC50 is 25 to 250 nM in test [1] (x = IC50 25-250 nM, read-out: CDK2/CCNE IC50 (25-250 nM)); > 250 nM in test [2] (setting [9]); > 250 nM in test [3] (setting [10]); > 250 nM in test [4] (setting [11]).

As to `CC1(C)C(=O)Nc2cc(C#Cc3nccc4cnc(Nc5ccc(S(=O)(=O)NC6CCC6)cc5)cc34)ccc21` [Ex 457, N-cyclobutyl-4-((5-((3,3-dimethyl-2-oxoindolin-6-yl)ethynyl)-2,6-naphthyridin-3-yl)amino)benzenesulfonamide], the IC50 in test [1] (setting [5]) was < 25 nM; in test [2] (setting [6]) it was 25 to 250 nM; in test [3] (setting [10]), > 250 nM; in test [4] (setting [11]), > 250 nM.

In the case of `CC(C)S(=O)(=O)c1ccc(Nc2cc3c(C#Cc4ccc5c(c4)NC(=O)C5(C)C)nccc3cn2)cc1` [Ex 458, 6-((7-((4-(isopropylsulfonyl)phenyl)amino)-2,6-naphthyridin-1-yl)ethynyl)-3,3-dimethylindolin-2-one], the IC50 in test [1] (setting [5]) is < 25 nM; in test [2] (setting [6]), 25 to 250 nM; in test [3] (setting [10]), > 250 nM; in test [4] (setting [11]), > 250 nM.

`CCS(=O)(=O)c1ccc(Nc2cc3c(C#Cc4ccc5c(c4)NC(=O)C5(C)C)nccc3cn2)cc1` [Ex 459, 6-((7-((4-(ethylsulfonyl)phenyl)amino)-2,6-naphthyridin-1-yl)ethynyl)-3,3-dimethylindolin-2-one]: the IC50 in test [1] (setting [5]) was < 25 nM; in test [2] (setting [6]) it was 25 to 250 nM; in test [3] (setting [7]), 25 to 250 nM; in test [4] (setting [11]), > 250 nM.

With `CS(=O)(=O)c1ccc(Nc2cc3c(C#Cc4ccc5c(c4)NC(=O)C54CCC4)nccc3cn2)cc1` [Ex 460, 6'-((7-((4-(methylsulfonyl)phenyl)amino)-2,6-naphthyridin-1-yl)ethynyl)spiro[cyclobutane-1,3'-indolin]-2'-one], the IC50 in test [1] (setting [5]) is < 25 nM; in test [2] (setting [9]) it was > 250 nM; in test [3] (setting [10]), > 250 nM; in test [4] (setting [11]), > 250 nM.

As to `CCC1(CC)C(=O)Nc2cc(C#Cc3nccc4cnc(Nc5ccc(S(C)(=O)=O)cc5)cc34)ccc21` [Ex 461, 3,3-diethyl-6-((7-((4-(methylsulfonyl)phenyl)amino)-2,6-naphthyridin-1-yl)ethynyl)indolin-2-one], the IC50 in test [1] (setting [5]) is < 25 nM; in test [2] (setting [9]), > 250 nM; in test [3] (setting [10]) it was > 250 nM; in test [4] (setting [11]), > 250 nM.

Take `Nc1ncccc1C#Cc1nccc2cnc(Nc3ccc(S(N)(=O)=O)cc3F)cc12` [Ex 466, 4-((5-((2-aminopyridin-3-yl)ethynyl)-2,6-naphthyridin-3-yl)amino)-3-fluorobenzenesulfonamide]: the IC50 is < 25 nM in test [1] (setting [5]), > 250 nM in test [2] (setting [9]), > 250 nM in test [3] (setting [10]) and > 250 nM in test [4] (setting [11]).
